According to US5128343A, “Derivatives of pyrimidinyl-piperazinyl-alkyl azoles with anxiolytic and/or tranquilizing activity” (Laboratorios del Dr. Esteve, priority 1989, dated 1992):
Structures can show the parent of a compound that is named as a salt. Where two headings read alike, the source gives them in different places.

Test system: male Wistar rats
Assay: conditioned avoidance response test (anxiolytic and tranquilizing action)
Type: in vivo
Settings: suppression of conditioned avoidance response, oral administration 45 minutes before study; for Activity %: dose not given
Protocol: In this test, male Wistar rats of 200 grams weight are used, trained to jump over a barrier in an avoidance and exit cage (shuttle box) (Letica, reference L1 910 and L1 2700) in the 30 seconds following their introduction into the cage.
The products with anxiolytic or tranquilizing activity suppress the conditioned avoidance response.
Training: first day: 11 tests, at intervals of 3 minutes. Electro-shock on the paws, at 30 seconds (5 mA, 0.1 s, 10 s).
Second and third days: 2 tests per day, solely with selected rats [sum of the points of the first day (excepting the first test)>14].
Day of test: groups formed of selected rats. Oral administration of the product or of the vehicle 45 minutes before starting the study.

[1] = Rattus norvegicus, po, 0.75 h, read-out: ED50

Compound	ED50 [1] [mg/kg]	Activity % [%]	ED50 (45 min) [mg/kg]	ED50 (dihydrochloride, 45 min) [mg/kg]	Activity % (dihydrochloride) [%]
O=C1CC2(CCCC2)CC(=O)N1CCCCN1CCN(c2ncccn2)CC1 [Buspirone, reference compound]	17.2	99			
c1cnc(N2CCN(CCCCn3cccn3)CC2)nc1 [Example 1, 1H-pyrazole-1-(4-(4-(2-pyrimidinyl)-1-piperazinyl)-butyl)]	26.2	98			
Cc1cc(C)n(CCCCN2CCN(c3ncccn3)CC2)n1 [Example 2]	80	50			
Cc1nn(CCCCN2CCN(c3ncccn3)CC2)c(C)c1[N+](=O)[O-] [Example 3]	58.3	61			
Cc1cnn(CCCCN2CCN(c3ncccn3)CC2)c1 [Example 4]	< 20	98			
c1cnc(N2CCN(CCCCn3ncc4ccccc43)CC2)nc1 [Example 5]	80	45			
Cc1nn(CCCCN2CCN(c3ncccn3)CC2)c(C)c1Br [Example 6]	80	51			
O=[N+]([O-])c1cnn(CCCCN2CCN(c3ncccn3)CC2)c1 [Example 7, 1H-pyrazole-4-nitro-1-(4-(4-(2-pyrimidinyl)-1-piperazinyl)-butyl)]	6.2	98			
Clc1cnn(CCCCN2CCN(c3ncccn3)CC2)c1 [Example 8, 1H-pyrazole-4-chloro-1-(4-(4-(2-pyrimidinyl)-1-piperazinyl)-butyl)]		95	17.9		
CCOC(=O)c1cnn(CCCCN2CCN(c3ncccn3)CC2)c1 [Example 9]		14			
Cc1cc(-c2ccccc2)n(CCCCN2CCN(c3ncccn3)CC2)n1 [Example 10]		24			
Brc1cnn(CCCCN2CCN(c3ncccn3)CC2)c1 [Example 11]	28.9	95			
N#Cc1cnn(CCCCN2CCN(c3ncccn3)CC2)c1 [Example 12]		100			
Fc1cnn(CCCCN2CCN(c3ncccn3)CC2)c1 [Example 13]		85			
Nc1cnn(CCCCN2CCN(c3ncccn3)CC2)c1 [Example 15, 1H-pyrazole-4-amino-1-(4-(4-(2-pyrimidinyl)-1-piperazinyl)-butyl)]	27.7	79			
CS(=O)(=O)Nc1cnn(CCCCN2CCN(c3ncccn3)CC2)c1 [Example 16, 1H-pyrazole-4-methylsulfonamido-1-(4-(4-(2-pyrimidinyl)-1-piperazinyl)-butyl)]	40	64			
O=C(Nc1cnn(CCCCN2CCN(c3ncccn3)CC2)c1)c1ccccc1 [Example 17]	65.9	62			
CC(=O)Nc1cnn(CCCCN2CCN(c3ncccn3)CC2)c1 [Example 18]	28.8	89			
CCC(C)Nc1cnn(CCCCN2CCN(c3ncccn3)CC2)c1 (stereo not shown) [Example 19]	29.7	80			
Brc1cnc(N2CCN(CCCCn3cc(Br)cn3)CC2)nc1 [Example 20]	76.8	59			
Clc1cnn(CCCCN2CCN(c3ncc(Br)cn3)CC2)c1 [Example 21]	51.7	48			
Cc1ccnn1CCCCN1CCN(c2ncccn2)CC1 [Example 22]		47			
Cc1c(Br)cnn1CCCCN1CCN(c2ncccn2)CC1 [Example 24, 1H-pyrazole-4-bromo-5-methyl-1-(4-(4-(2-pyrimidinyl)-1-piperazinyl)-butyl)]	60.6	53			
Cc1nn(CCCCN2CCN(c3ncccn3)CC2)cc1Br [Example 25]	58.3	59			
c1cnc(N2CCN(CCCCn3ncc4c3CCCC4)CC2)nc1 [Example 26]	19.5	97			

Compound	ED50 [1] [mg/kg]	Activity % [%]	ED50 (45 min) [mg/kg]	ED50 (dihydrochloride, 45 min) [mg/kg]	Activity % (dihydrochloride) [%]
c1cnc(N2CCN(CCCCn3cc4c(n3)CCCC4)CC2)nc1 [Example 27]	18.9	98			
Cc1c(-c2ccccc2)cnn1CCCCN1CCN(c2ncccn2)CC1 [Example 28]	32.2	75			
Cc1nn(CCCCN2CCN(c3ncccn3)CC2)cc1-c1ccccc1 [Example 29]	31.9	78			
Fc1cn(CCCCN2CCN(c3ncccn3)CC2)nc1Cl [Example 30]	53.9	85			
COc1ccc(-c2cnn(CCCCN3CCN(c4ncccn4)CC3)c2)cc1 [Example 32]	22.5	60			
Clc1ccc(-c2cnn(CCCCN3CCN(c4ncccn4)CC3)c2)cc1 [Example 33]	15.7	90			
c1cnc(N2CCN(CCCCn3cc(-n4cccc4)cn3)CC2)nc1 [Example 34]	5	100			
c1ccc(-c2cnn(CCCCN3CCN(c4ncccn4)CC3)c2)cc1 [Example 35]	27.4	100			
c1ccc(-c2cc(-c3ccccc3)n(CCCCN3CCN(c4ncccn4)CC3)n2)cc1 [Example 36]	122	31			
O=S(=O)(Nc1cnn(CCCCN2CCN(c3ncccn3)CC2)c1)c1ccccc1 [Example 37]	85	46			
Cc1ccc(S(=O)(=O)Nc2cnn(CCCCN3CCN(c4ncccn4)CC3)c2)cc1 [Example 38]	102	37			
CCCCS(=O)(=O)Nc1cnn(CCCCN2CCN(c3ncccn3)CC2)c1 [Example 39]	73	57			
CCCS(=O)(=O)Nc1cnn(CCCCN2CCN(c3ncccn3)CC2)c1 [Example 40]	73	57			
CCS(=O)(=O)Nc1cnn(CCCCN2CCN(c3ncccn3)CC2)c1 [Example 41]	29.3	77			
Cc1nn(CCCCN2CCN(c3ncccn3)CC2)c(C)c1S(=O)(=O)N(C)C [Example 42]	82	45			
CN(C)S(=O)(=O)c1cnn(CCCCN2CCN(c3ncccn3)CC2)c1 [Example 43]	72	63			
O=S(=O)(O)c1cnn(CCCCN2CCN(c3ncccn3)CC2)c1 [Example 44]		15			
c1cnc(N2CCN(CCCCn3ccnc3)CC2)nc1 [Example 45]	93	35			
Clc1ncn(CCCCN2CCN(c3ncccn3)CC2)c1Cl [Example 46]		99			
Cc1cn(CCCCN2CCN(c3ncccn3)CC2)cn1 [Example 47]	80	50			
Cc1cncn1CCCCN1CCN(c2ncccn2)CC1 [Example 48]	75	52			
Clc1cnn(CCCCN2CCN(c3ncccn3)CC2)c1 [Example 49]		100	14.5		
Clc1cnn(CCCCN2CCN(c3ncccn3)CC2)c1 [Example 50, 1H-pyrazole-4-chloro-1-(4-(4-(2-pyrimidinyl)-1-piperazinyl)-butyldihydrochloride]				4.9	99
O=C1c2ccccc2S(=O)(=O)N1CCCCN1CCN(c2ncccn2)CC1 [Ipsapirone, reference compound]	26.1	98			
